Experimental data taken from PMC9037210, “Novel 3-(6-methylpyridin-2-yl)coumarin-based chalcones as selective inhibitors of cancer-related carbonic anhydrases IX and XII endowed with anti-proliferative activity” (Journal of Enzyme Inhibition and Medicinal Chemistry, 2022).
Where two headings read alike, the source gives them in different places.

What was measured:
hCA II [1] = target: T1, hCA II (Homo sapiens, UniProt P00918); experiment: stopped-flow CO2 hydrase assay, hCA II; assay type: biochemical; conditions: incubation time of 6 h, mean of three assays, read-out: KI CA II
T1 construct: made in house
Experimental: (§1) The newly synthesised MPCs (3 and 5a–o) were assessed for their CA inhibition activity employing the stopped-flow CO2 hydrase assay[29] for constitutional hCA (I/II) isoforms and cancer-linked hCA (IX/XII) isoforms.
(§2) The CA inhibition activity for the herein reported MPC derivatives was evaluated against the hCA isoforms I, II, IX, and XII using stopped-flow CO2 hydrase test[7]^,[33–36] (see the Supplementary Material).
(§3) Carbonic anhydrase inhibition assay
(§4) The carbonic anhydrase catalyzed CO2 hydration actions for all coumarin-based […]
(§5) Photophysics stopped-flow. The enzymes are recombinant proteins prepared in our lab. Phenol red (at a concentration of 0.2 mM) has been used as indicator, working at […]
(§6) mM Na2SO4 (for maintaining constant the ionic strength), following the initial rates of the CA-catalyzed CO2 hydration reaction for a period of 10-100 s. The CO2 concentrations ranged from 1.7 to 17 mM for the determination of the kinetic parameters and inhibition constants. For each inhibitor at least six traces of the initial 5-10% of the reaction have been used for determining the initial velocity. The uncatalyzed rates were determined in the same manner and subtracted from the total observed rates. Stock solutions of inhibitor (0.1 mM) were prepared in distilled-deionized water and dilutions up to 0.01 nM were done thereafter with the assay buffer. Inhibitor and enzyme solutions were preincubated together for 6 hrs. at room temperature prior to assay, in order to allow for the formation of the E-I complex. The inhibition constants were obtained by non-linear least-squares methods using PRISM 3 and the Cheng-Prusoff equation, and represent the mean from at least three different

hCA IX [2] = target: T2, hCA IX (Homo sapiens, UniProt Q16790); experiment: stopped-flow CO2 hydrase assay, hCA IX; assay type: biochemical; conditions: for Selectivity index (SI) (KI off-target CA/KI target CA) Towards hCA IX: ratio of KI for hCA I and II relative to hCA IX; for Ki: stopped-flow, incubation time of 6 h, mean of three assays, read-out: KI CA IX; for fold decreased inhibitory activity towards hCA IX: relative to phenyl analogue 5a
T2 construct: made in house
Experimental: as §1, §2, §3, §4, §5, §6

hCA I [3] = target: T3, hCA I (Homo sapiens, UniProt P00915); experiment: stopped-flow CO2 hydrase assay, hCA I; assay type: biochemical
T3 construct: made in house
T3 sequence (P00915 whole entry): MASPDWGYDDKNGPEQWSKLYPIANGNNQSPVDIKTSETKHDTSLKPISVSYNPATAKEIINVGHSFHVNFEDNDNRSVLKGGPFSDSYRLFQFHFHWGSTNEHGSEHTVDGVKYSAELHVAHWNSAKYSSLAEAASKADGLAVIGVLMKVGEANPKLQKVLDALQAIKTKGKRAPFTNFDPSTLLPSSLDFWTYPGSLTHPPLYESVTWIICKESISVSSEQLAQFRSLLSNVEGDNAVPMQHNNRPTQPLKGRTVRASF
Experimental: as §1, §2, §3, §4, §5, §6

hCA XII = target: T4, hCA XII (Homo sapiens, UniProt O43570); experiment: stopped-flow CO2 hydrase assay, hCA XII; assay type: biochemical; conditions: for Selectivity index (SI) (KI off-target CA/KI target CA) Towards hCA XII: ratio of KI for hCA I and II relative to hCA XII; for Ki: stopped-flow, incubation time of 6 h, mean of three assays, read-out: KI CA XII
T4 construct: made in house
T4 sequence (O43570 25-354): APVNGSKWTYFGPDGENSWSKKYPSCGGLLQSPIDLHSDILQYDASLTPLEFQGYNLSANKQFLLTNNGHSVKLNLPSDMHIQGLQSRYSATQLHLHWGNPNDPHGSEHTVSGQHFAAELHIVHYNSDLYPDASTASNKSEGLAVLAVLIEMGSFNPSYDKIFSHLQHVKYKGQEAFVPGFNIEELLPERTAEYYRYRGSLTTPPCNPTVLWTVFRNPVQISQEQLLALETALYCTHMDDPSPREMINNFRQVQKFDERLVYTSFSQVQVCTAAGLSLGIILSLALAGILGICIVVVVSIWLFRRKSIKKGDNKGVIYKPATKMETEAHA
Experimental: as §1, §2, §3, §4, §5, §6

MCF7 = experiment: NCI single (10 µM) dose SRB screening, MCF7; assay type: cell-based, human; conditions: 10 µM single dose, MCF7, Breast cancer
Experimental: (§7) Following NCI protocol, sixteen MPCs were screened for their potential in vitro anticancer effects against human 59 cancer cell panels including prostate, leukaemia melanoma, colon, breast, CNS, renal, NSCLC, and ovarian cancers by National Cancer Institute (USA)[30].
(§8) The antiproliferative activities of MPC 3 and MPCs 5a–o were first evaluated in a 10 µM dose assay, with SRB assay used to determine cell survival and proliferation. […] The results of the cell growth inhibitory activities for MPCs 5g and 5l towards the different treated tumour cell lines were presented as GI% and presented in Table 3.
(§9) The anticancer test was conducted using the methods of the Drug Evaluation Branch, National Cancer Institute, Bethesda, MD, using 59 human tumour cell lines derived from nine human tissues. The GI50, TGI, and LC50 dose-response parameters were calculated for each medication.

SNB-75 = experiment: NCI single (10 µM) dose SRB screening, SNB-75; assay type: cell-based, human; conditions: 10 µM single dose, SNB-75, CNS cancer
Experimental: as §7, §8, §9

LOX IMVI = experiment: NCI single (10 µM) dose SRB screening, LOX IMVI; assay type: cell-based, human; conditions: 10 µM single dose, Melanoma
Experimental: as §7, §8, §9

MDA-MB-435 = experiment: NCI single (10 µM) dose SRB screening, MDA-MB-435; assay type: cell-based, human; conditions: 10 µM single dose, MDA-MB-435, Melanoma
Experimental: as §7, §8, §9

hCA II [4] = target: T1, hCA II; conditions: Figure 1; read-out: hCA II inhibition; cited from earlier work
hCA I [5] = target: T3, hCA I; conditions: Figure 1; read-out: hCA I inhibition; cited from earlier work
hCA IX [6] = target: T2, hCA IX; conditions: Figure 1; read-out: hCA IX inhibition; cited from earlier work
[7] = stopped-flow, incubation time of 6 h, mean of three assays, read-out: KI CA I

Row | Compound | Ki (hCA II [1]) [µM] | Selectivity index (SI) (KI off-target CA/KI target CA) Towards hCA IX (hCA IX [2]) | Ki (hCA IX [2]) [µM] | Ki (hCA I [3]; [7]) [µM] | Selectivity index (SI) (KI off-target CA/KI target CA) Towards hCA XII (hCA XII) | Ki (hCA XII) [µM] | melting point [°C] | fold decreased inhibitory activity towards hCA IX (hCA IX [2]) | Ki (hCA I [3]) [µM] | GI % (MCF7) [%] | GI % (SNB-75) [%] | GI % (LOX IMVI) [%] | GI % (MDA-MB-435) [%] | Ki (hCA II [4]) [µM] | Ki (hCA I [5]) [µM] | Ki (hCA IX [6]) [µM]
1 | Cc1nc(-c2cc3ccccc3oc2=O)ccc1C(=O)/C=C/c1ccccc1 [Compound 5a, 3-(6-Methyl-5-[(2E)-3-phenylprop-2-enoyl]pyridin-2-yl)-2H-chromen-2-one] | > 100 | >66.67 | 1.5 | > 100 | >19.61 | 5.1 | – | – | – | – | – | – | – | – | – | –
2 | Cc1ccc(/C=C/C(=O)c2ccc(-c3cc4ccccc4oc3=O)nc2C)cc1 [Compound 5d, 3-(6-Methyl-5-[(2E)-3-(4-methylphenyl)prop-2-enoyl]pyridin-2-yl)-2H-chromen-2-one] | > 100 | >23.25 | 4.3 | > 100 | >12.19 | 8.2 | 206 to 208 | – | – | – | – | – | – | – | – | –
3 | Cc1nc(-c2cc3ccccc3oc2=O)ccc1C(=O)/C=C/c1ccc([N+](=O)[O-])cc1 [Compound 5e, 3-(6-Methyl-5-[(2E)-3-(4-nitrophenyl)prop-2-enoyl]pyridin-2-yl)-2H-chromen-2-one] | > 100 | >6.10 | 16.4 | > 100 | >9.17 | 10.9 | 202 to 204 | – | – | – | – | – | – | – | – | –
4 | Cc1nc(-c2cc3ccccc3oc2=O)ccc1C(=O)/C=C/c1ccc(N(C)C)cc1 [Compound 5f, 3-(5-[(2E)-3-[4-(Dimethylamino)phenyl]prop-2-enoyl]-6-methylpyridin-2-yl)-2H-chromen-2-one] | > 100 | >11.76 | 8.5 | > 100 | >14.92 | 6.7 | – | – | – | – | – | – | 80 | – | – | –
5 | COc1ccc(/C=C/C(=O)c2ccc(-c3cc4ccccc4oc3=O)nc2C)cc1 [Compound 5h, 3-(5-[(2E)-3-(4-Methoxyphenyl)prop-2-enoyl]-6-methylpyridin-2-yl)-2H-chromen-2-one] | > 100 | >9.34 | 10.7 | > 100 | >35.71 | 2.8 | 174 to 175 | – | – | – | – | – | – | – | – | –
6 | COc1cc(/C=C/C(=O)c2ccc(-c3cc4ccccc4oc3=O)nc2C)cc(OC)c1OC [Compound 5i, 3-(6-Methyl-5-[(2E)-3-(3,4,5-trimethoxyphenyl)prop-2-enoyl]pyridin-2-yl)-2H-chromen-2-one] | > 100 | >3.65 | 27.4 | > 100 | >7.75 | 12.9 | 186 to 188 | – | – | – | – | – | – | – | – | –
7 | Cc1nc(-c2cc3ccccc3oc2=O)ccc1C(=O)/C=C/c1ccc2c(c1)OCO2 [Compound 5j, 3-(5-[(2E)-3-(2H-1,3-Benzodioxol-5-yl)prop-2-enoyl]-6-methylpyridin-2-yl)-2H-chromen-2-one] | > 100 | >18.87 | 5.3 | > 100 | >14.71 | 6.8 | 178 to 180 | about 3.5 fold | – | – | – | – | – | – | – | –
8 | Cc1ccc(/C=C/C(=O)c2ccc(-c3cc4ccccc4oc3=O)nc2C)o1 [Compound 5n, 3-(6-Methyl-5-[(2E)-3–(5-methylfuran-2-yl)prop-2-enoyl]pyridin-2-yl)-2H-chromen-2-one] | > 100 | >66.67 | 1.5 | > 100 | >52.63 | 1.9 | – | – | – | 40 | – | 39 | – | – | – | –
9 | O=c1ccc2cc(O)ccc2o1 [III] | – | – | – | – | – | – | – | – | – | – | – | – | – | > 100 | > 100 | –
10 | O=C(Nc1ccc(Cl)cc1)c1cc2ccc(O)cc2oc1=O [IV] | – | – | – | – | – | – | – | – | – | – | – | – | – | > 100 | > 100 | –
11 | O=Cc1ccccc1OCc1cn(CCCOc2ccc3ccc(=O)oc3c2)nn1 [V] | – | – | – | – | – | – | – | – | – | – | – | – | – | – | > 10 | 0.13

Second part, led by results:

Row | Ki (hCA II [1]) [µM] | Selectivity index (SI) (KI off-target CA/KI target CA) Towards hCA IX (hCA IX [2]) | Ki (hCA IX [2]) [µM] | Ki (hCA I [3]; [7]) [µM] | Selectivity index (SI) (KI off-target CA/KI target CA) Towards hCA XII (hCA XII) | Ki (hCA XII) [µM] | melting point [°C] | fold decreased inhibitory activity towards hCA IX (hCA IX [2]) | Ki (hCA I [3]) [µM] | Compound | GI % (MCF7) [%] | GI % (SNB-75) [%] | GI % (LOX IMVI) [%] | GI % (MDA-MB-435) [%] | Ki (hCA II [4]) [µM] | Ki (hCA I [5]) [µM] | Ki (hCA IX [6]) [µM]
12 | > 100 | >105.26 | 0.95 | > 100 | >147.06 | 0.68 | – | – | – | CC(=O)c1ccc(-c2cc3ccccc3oc2=O)nc1C [Compound 3, 3-(5-acetyl-6-methylpyridin-2-yl)-2H-chromen-2-one] | – | – | – | – | – | – | –
13 | > 100 | >29.41 | 3.4 | > 100 | >37.04 | 2.7 | – | – | – | Cc1nc(-c2cc3ccccc3oc2=O)ccc1C(=O)/C=C/c1ccc(F)cc1 [Compound 5b, 3-(5-[(2E)-3-(4-Fluorophenyl)prop-2-enoyl]-6-methylpyridin-2-yl)-2H-chromen-2-one] | 49 | 39 | 46 | – | – | – | –
14 | > 100 | >17.24 | 5.8 | > 100 | >52.63 | 1.9 | 223 to 225 | – | – | Cc1nc(-c2cc3ccccc3oc2=O)ccc1C(=O)/C=C/c1ccc(Cl)cc1 [Compound 5c, 3-(5-[(2E)-3-(4-Chlorophenyl)prop-2-enoyl]-6-methylpyridin-2-yl)-2H-chromen-2-one] | – | – | – | – | – | – | –
15 | > 100 | >2.71 | 36.9 | > 100 | >4.67 | 21.4 | 204 to 206 | ~23 fold | – | Cc1nc(-c2cc3ccccc3oc2=O)ccc1C(=O)/C=C/c1cccc2ccccc12 [Compound 5k, 3-(6-Methyl-5-[(2E)-3-(naphthalen-1-yl)prop-2-enoyl]pyridin-2-yl)-2H-chromen-2-one] | – | – | – | – | – | – | –
16 | > 100 | – | – | – | – | – | – | – | > 100 | Cc1nc(-c2cc3ccccc3oc2=O)ccc1C(=O)/C=C/c1cccs1 [Compound 5m, 3-(6-Methyl-5-[(2E)-3-(thiophen-2-yl)prop-2-enoyl]pyridin-2-yl)-2H-chromen-2-one] | – | – | – | – | – | – | –
17 | > 100 | >5.15 | 19.4 | > 100 | >5.62 | 17.8 | 204 to 206 | – | – | Cc1nn(-c2ccccc2)cc1/C=C/C(=O)c1ccc(-c2cc3ccccc3oc2=O)nc1C [Compound 5o, 3-(6-Methyl-5-[(2E)-3–(3-methyl-1-phenyl-1H-pyrazol-4-yl)prop-2-enoyl]pyridin-2-yl)-2H-chromen-2-one] | – | – | – | – | – | – | –
